# Data reported in patent publication US7851474B2, “Dipiperazinyl ketones and related analogues” (Neurogen Corporation, priority 2005, dated 2010).
# Target: T1, chimeric human H3 receptor (Homo sapiens, UniProt Q9Y5N1, E19D)
# T1 construct: made in house; host or cells: Sf9 insect cells (baculovirus infection); P2 membrane preparation
# Experiment: Chimeric human H3 receptor GTP binding assay (agonist-stimulated GTP-gamma35S binding, Example 7)
# Format: biochemical
# Settings: assay of Example 7; "*" in Ki of Table II; read-out: Ki
# Procedure, shortened: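 Sf9 membranes co-expressing the chimeric receptor and heterotrimeric G-protein subunits, 35 μg protein per tube, in pH 7.4 Tris buffer with 10 μM GDP. Test compounds at 10^−10 to 10^−6 M with 1 μM histamine, 60 min at room temperature. Filter-bound GTP-gamma^35S read by scintillation; IC50 from non-linear regression of dose-response curves.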
# T1 sequence (Q9Y5N1 with tags, fused parts or gaps E19D): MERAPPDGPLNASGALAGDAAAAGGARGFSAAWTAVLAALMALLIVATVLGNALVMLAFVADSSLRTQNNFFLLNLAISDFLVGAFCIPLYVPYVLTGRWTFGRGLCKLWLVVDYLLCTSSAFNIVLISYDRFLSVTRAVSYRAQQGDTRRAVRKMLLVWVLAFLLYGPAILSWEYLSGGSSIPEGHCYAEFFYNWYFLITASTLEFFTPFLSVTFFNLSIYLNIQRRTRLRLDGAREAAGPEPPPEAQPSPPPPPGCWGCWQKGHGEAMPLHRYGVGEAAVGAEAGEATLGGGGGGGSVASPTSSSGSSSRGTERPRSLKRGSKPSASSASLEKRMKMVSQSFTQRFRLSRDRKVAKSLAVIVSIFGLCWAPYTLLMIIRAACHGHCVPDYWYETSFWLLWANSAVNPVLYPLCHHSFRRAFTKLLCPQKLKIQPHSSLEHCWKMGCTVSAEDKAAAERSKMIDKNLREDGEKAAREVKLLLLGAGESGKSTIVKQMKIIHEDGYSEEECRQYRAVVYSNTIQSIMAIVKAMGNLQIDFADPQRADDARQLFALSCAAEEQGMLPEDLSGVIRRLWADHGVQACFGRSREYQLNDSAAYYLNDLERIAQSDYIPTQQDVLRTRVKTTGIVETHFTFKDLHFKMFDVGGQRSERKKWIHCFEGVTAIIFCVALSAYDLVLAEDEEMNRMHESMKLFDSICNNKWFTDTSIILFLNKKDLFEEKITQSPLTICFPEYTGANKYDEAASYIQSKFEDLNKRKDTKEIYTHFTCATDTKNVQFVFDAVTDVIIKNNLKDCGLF
row,Ki [nM],Compound
1,< 1000,"Cc1cc(C)cc(C(=O)NC2CCN(CC(=O)N3CCN(C4CCC4)CC3)C2)c1 (centres unmarked) [Compound 1229, N-{1-[2-(4-cyclobutylpiperazin-1-yl)-2-oxoethyl]pyrrolidin-3-yl}-3,5-dimethylbenzamide]"
2,< 1000,"Cc1cccc(C(=O)NC2CCN(CC(=O)N3CCN(C4CCC4)CC3)C2)c1 (centres unmarked) [Compound 1230, N-{1-[2-(4-cyclobutylpiperazin-1-yl)-2-oxoethyl]pyrrolidin-3-yl}-3-methylbenzamide]"
3,< 1000,"Cc1ccc(C(=O)NC2CCN(CC(=O)N3CCN(C4CCC4)CC3)C2)cc1 (centres unmarked) [Compound 1231, N-{1-[2-(4-cyclobutylpiperazin-1-yl)-2-oxoethyl]pyrrolidin-3-yl}-4-methylbenzamide]"
4,< 1000,"Cc1ccc(C(=O)NC2CCN(CC(=O)N3CCN(C4CCC4)CC3)C2)cc1C (centres unmarked) [Compound 1232, N-{1-[2-(4-cyclobutylpiperazin-1-yl)-2-oxoethyl]pyrrolidin-3-yl}-3,4-dimethylbenzamide]"
5,< 1000,"O=C(NC1CCN(CC(=O)N2CCN(C3CCC3)CC2)C1)c1ccc2ccccc2c1 (centres unmarked) [Compound 1233, N-{1-[2-(4-cyclobutylpiperazin-1-yl)-2-oxoethyl]pyrrolidin-3-yl}-2-naphthamide]"
6,< 1000,"CCCc1ccc(C(=O)NC2CCN(CC(=O)N3CCN(C4CCC4)CC3)C2)cc1 (centres unmarked) [Compound 1234, N-{1-[2-(4-cyclobutylpiperazin-1-yl)-2-oxoethyl]pyrrolidin-3-yl}-4-propylbenzamide]"
7,< 1000,"CC(C)c1ccc(C(=O)NC2CCN(CC(=O)N3CCN(C4CCC4)CC3)C2)cc1 (centres unmarked) [Compound 1235, N-{1-[2-(4-cyclobutylpiperazin-1-yl)-2-oxoethyl]pyrrolidin-3-yl)-4-isopropylbenzamide]"
8,< 1000,"COc1cccc(C(=O)NC2CCN(CC(=O)N3CCN(C4CCC4)CC3)C2)c1 (centres unmarked) [Compound 1236, N-{1-[2-(4-cyclobutylpiperazin-1-yl)-2-oxoethyl]pyrrolidin-3-yl}-3-methoxybenzamide]"
9,< 1000,"COc1ccc(C(=O)NC2CCN(CC(=O)N3CCN(C4CCC4)CC3)C2)cc1 (centres unmarked) [Compound 1237, N-{1-[2-(4-cyclobutylpiperazin-1-yl)-2-oxoethyl]pyrrolidin-3-yl}-4-methoxybenzamide]"
10,< 1000,"CCOc1cccc(C(=O)NC2CCN(CC(=O)N3CCN(C4CCC4)CC3)C2)c1 (centres unmarked) [Compound 1239, N-{1-[2-(4-cyclobutylpiperazin-1-yl)-2-oxoethyl]pyrrolidin-3-yl}-3-ethoxybenzamide]"
11,< 1000,"CSc1ccc(C(=O)NC2CCN(CC(=O)N3CCN(C4CCC4)CC3)C2)cc1 (centres unmarked) [Compound 1241, N-{1-[2-(4-cyclobutylpiperazin-1-yl)-2-oxoethyl]pyrrolidin-3-yl}-4-(methylthio)benzamide]"
12,< 1000,"CCSc1ccc(C(=O)NC2CCN(CC(=O)N3CCN(C4CCC4)CC3)C2)cc1 (centres unmarked) [Compound 1242, N-{1-[2-(4-cyclobutylpiperazin-1-yl)-2-oxoethyl]pyrrolidin-3-yl}-4-(ethylthio)benzamide]"
13,< 1000,"COc1ccc(C(=O)NC2CCN(CC(=O)N3CCN(C4CCC4)CC3)C2)cc1F (centres unmarked) [Compound 1243, N-{1-[2-(4-cyclobutylpiperazin-1-yl)-2-oxoethyl]pyrrolidin-3-yl}-3-fluoro-4-methoxybenzamide]"
14,< 1000,"O=C(NC1CCN(CC(=O)N2CCN(C3CCC3)CC2)C1)c1ccc(Oc2ccccc2)cc1 (centres unmarked) [Compound 1244, N-{1-[2-(4-cyclobutylpiperazin-1-yl)-2-oxoethyl]pyrrolidin-3-yl}-4-phenoxybenzamide]"
15,< 1000,"CC(C)CC(=O)NC1CCN(CC(=O)N2CCN(C3CCC3)CC2)C1 (centres unmarked) [Compound 1246, N-{1-[2-(4-cyclobutylpiperazin-1-yl)-2-oxoethyl]pyrrolidin-3-yl}-3-methylbutanamide]"
16,< 1000,"CC(C)CCC(=O)NC1CCN(CC(=O)N2CCN(C3CCC3)CC2)C1 (centres unmarked) [Compound 1247, N-{1-[2-(4-cyclobutylpiperazin-1-yl)-2-oxoethyl]pyrrolidin-3-yl}-4-methylpentanamide]"
17,< 1000,"O=C(CC1CCCC1)NC1CCN(CC(=O)N2CCN(C3CCC3)CC2)C1 (centres unmarked) [Compound 1248, N-{1-[2-(4-cyclobutylpiperazin-1-yl)-2-oxoethyl]pyrrolidin-3-yl}-2-cyclopentylacetamide]"
18,< 1000,"O=C(CC1CCCCC1)NC1CCN(CC(=O)N2CCN(C3CCC3)CC2)C1 (centres unmarked) [Compound 1249, N-{1-[2-(4-cyclobutylpiperazin-1-yl)-2-oxoethyl]pyrrolidin-3-yl}-2-cyclohexylacetamide]"
19,< 1000,"O=C(CCC1CCCC1)NC1CCN(CC(=O)N2CCN(C3CCC3)CC2)C1 (centres unmarked) [Compound 1250, N-{1-[2-(4-cyclobutylpiperazin-1-yl)-2-oxoethyl]pyrrolidin-3-yl}-3-cyclopentylpropanamide]"

row,Ki [nM],Compound
1,< 1000,"CCC(C)CC(=O)NC1CCN(CC(=O)N2CCN(C3CCC3)CC2)C1 (centres unmarked) [Compound 1251, N-{1-[2-(4-cyclobutylpiperazin-1-yl)-2-oxoethyl]pyrrolidin-3-yl}-3-methylpentanamide]"
2,< 1000,"CC(C)(C)CC(=O)NC1CCN(CC(=O)N2CCN(C3CCC3)CC2)C1 (centres unmarked) [Compound 1252, N-{1-[2-(4-cyclobutylpiperazin-1-yl)-2-oxoethyl]pyrrolidin-3-yl}-3,3-dimethylbutanamide]"
3,< 1000,"O=C(NC1CCN(CC(=O)N2CCN(C3CCC3)CC2)C1)c1ccccc1 (centres unmarked) [Compound 1253, N-{1-[2-(4-cyclobutylpiperazin-1-yl)-2-oxoethyl]pyrrolidin-3-yl}benzamide]"
4,< 1000,"O=C(NC1CCN(CC(=O)N2CCN(C3CCC3)CC2)C1)c1ccc(-c2ccccc2)cc1 (centres unmarked) [Compound 1254, N-{1-[2-(4-cyclobutylpiperazin-1-yl)-2-oxoethyl]pyrrolidin-3-yl}biphenyl-4-carboxamide]"
5,< 1000,"O=C(NC1CCN(CC(=O)N2CCN(C3CCC3)CC2)C1)C1CC2CCC1C2 (centres unmarked) [Compound 1255, N-{1-[2-(4-cyclobutylpiperazin-1-yl)-2-oxoethyl]pyrrolidin-3-yl}bicyclo[2.2.1]heptane-2-carboxamide]"
6,< 1000,"O=C(NC1CCN(CC(=O)N2CCN(C3CCC3)CC2)C1)C1CCCCC1 (centres unmarked) [Compound 1256, N-{1-[2-(4-cyclobutylpiperazin-1-yl)-2-oxoethyl]pyrrolidin-3-yl} cyclohexanecarboxamide]"
7,< 1000,"CCCCC(=O)NC1CCN(CC(=O)N2CCN(C3CCC3)CC2)C1 (centres unmarked) [Compound 1257, N-{1-[2-(4-cyclobutylpiperazin-1-yl)-2-oxoethyl]pyrrolidin-3-yl}pentanamide]"
8,< 1000,"CC(=O)NC1CCN(CC(=O)N2CCN(C3CCCC3)CC2)C1 (centres unmarked) [Compound 1258, N-{1-[2-(4-cyclopentylpiperazin-1-yl)-2-oxoethyl]pyrrolidin-3-yl}acetamide]"
9,< 1000,"CC(=O)NC1CCN(CC(=O)N2CCN(C(C)C)CC2)C1 (centres unmarked) [Compound 1259, N-{1-[2-(4-isopropylpiperazin-1-yl)-2-oxoethyl]pyrrolidin-3-yl}acetamide]"
10,< 1000,"C=CCNC(=O)c1cccc(N2CCN(CC(=O)N3CCN(C4CCC4)CC3)CC2)c1 [Compound 1260, N-allyl-3-{4-[2-(4-cyclobutylpiperazin-1-yl)-2-oxoethyl]piperazin-1-yl}benzamide]"
11,< 1000,"C=CCNC(=O)c1ccc(N2CCN(CC(=O)N3CCN(C4CCC4)CC3)CC2)cc1 [Compound 1261, N-allyl-4-{4-[2-(4-cyclobutylpiperazin-1-yl)-2-oxoethyl]piperazin-1-yl}benzamide]"
12,< 1000,"C=CCNC(=O)c1ccc(N2CCN(CC(=O)N3CCN(C4CCC4)CC3)CC2)nc1 [Compound 1262, N-allyl-6-{4-[2-(4-cyclobutylpiperazin-1-yl)-2-oxoethyl]piperazin-1-yl}nicotinamide]"
13,< 1000,"CCCCNC(=O)c1cccc(N2CCN(CC(=O)N3CCN(C4CCC4)CC3)CC2)c1 [Compound 1263, N-butyl-3-{4-[2-(4-cyclobutylpiperazin-1-yl)-2-oxoethyl]piperazin-1-yl}benzamide]"
14,< 1000,"CCCCNC(=O)c1ccc(N2CCN(CC(=O)N3CCN(C4CCC4)CC3)CC2)cc1 [Compound 1264, N-butyl-4-{4-[2-(4-cyclobutylpiperazin-1-yl)-2-oxoethyl]piperazin-1-yl}benzamide]"
15,< 1000,"CCCCNC(=O)c1ccc(N2CCN(CC(=O)N3CCN(C4CCC4)CC3)CC2)nc1 [Compound 1265, N-butyl-6-{4-[2-(4-cyclobutylpiperazin-1-yl)-2-oxoethyl]piperazin-1-yl}nicotinamide]"
16,< 1000,"O=C(NC1CCC1)c1cccc(N2CCN(CC(=O)N3CCN(C4CCC4)CC3)CC2)c1 [Compound 1266, N-cyclobutyl-3-{4-[2-(4-cyclobutylpiperazin-1-yl)-2-oxoethyl]piperazin-1-yl}benzamide]"
17,< 1000,"O=C(NC1CCC1)c1ccc(N2CCN(CC(=O)N3CCN(C4CCC4)CC3)CC2)nc1 [Compound 1268, N-cyclobutyl-6-{4-[2-(4-cyclobutylpiperazin-1-yl)-2-oxoethyl]piperazin-1-yl}nicotinamide]"
18,< 1000,"CC(=O)c1ccc(N2C[C@@H](C)N(CC(=O)N3CCN(C4CCC4)CC3)[C@@H](C)C2)cc1 [Compound 1270, rel-1-(4-{(3R,5S)-4-[2-(4-cyclobutylpiperazin-1-yl)-2-oxoethyl]-3,5-dimethylpiperazin-1-yl}phenyl)ethanone]"
19,< 1000,N-{1-[2-(4- cyclobutylpiperazin-1-yl)- 2-oxoethyl]piperldin-4-yl}- 2-naphthamide [Compound 1207]
